From ChEMBL document CHEMBL1938230, “6-Position optimization of tricyclic 4-quinolone-based inhibitors of glycogen synthase kinase-3β: discovery of nitrile derivatives with picomolar potency” (Bioorg Med Chem Lett, 2012)
pIC50: −log10 of the molar value. Values after ≈ are worked out from the molar mass of the structure shown.

Key:
[1] = target: T1, Mitogen-activated protein kinase kinase kinase 2 (Homo sapiens) (UniProt Q9Y2U5); experiment: Inhibition of human MAP3K2 in HL-60 cells lysate assessed as reduction of labeling of acyl-phosphate ATP probe at 100 nM; type: cell-free
T1 sequence (whole entry): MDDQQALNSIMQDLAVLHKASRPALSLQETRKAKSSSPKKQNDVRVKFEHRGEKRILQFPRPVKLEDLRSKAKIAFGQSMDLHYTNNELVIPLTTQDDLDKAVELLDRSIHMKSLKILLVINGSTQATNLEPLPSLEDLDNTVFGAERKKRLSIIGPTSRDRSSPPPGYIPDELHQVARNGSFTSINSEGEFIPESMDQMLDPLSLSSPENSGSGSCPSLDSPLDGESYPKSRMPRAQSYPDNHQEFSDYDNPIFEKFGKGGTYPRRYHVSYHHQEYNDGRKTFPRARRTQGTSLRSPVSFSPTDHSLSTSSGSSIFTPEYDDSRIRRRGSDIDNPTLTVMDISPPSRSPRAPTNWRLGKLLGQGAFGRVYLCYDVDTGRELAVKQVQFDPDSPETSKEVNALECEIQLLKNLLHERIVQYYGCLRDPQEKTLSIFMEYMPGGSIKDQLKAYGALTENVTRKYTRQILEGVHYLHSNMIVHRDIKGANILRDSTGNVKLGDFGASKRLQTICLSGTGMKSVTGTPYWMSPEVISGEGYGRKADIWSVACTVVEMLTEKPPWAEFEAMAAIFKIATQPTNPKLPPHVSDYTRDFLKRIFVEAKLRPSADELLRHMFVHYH

[2] = target: T2, EKC/KEOPS complex subunit TP53RK (Homo sapiens) (UniProt Q96S44); experiment: Inhibition of human PRPK in HL-60 cells lysate assessed as reduction of labeling of acyl-phosphate ATP probe at 100 nM; type: cell-free
T2 sequence (whole entry): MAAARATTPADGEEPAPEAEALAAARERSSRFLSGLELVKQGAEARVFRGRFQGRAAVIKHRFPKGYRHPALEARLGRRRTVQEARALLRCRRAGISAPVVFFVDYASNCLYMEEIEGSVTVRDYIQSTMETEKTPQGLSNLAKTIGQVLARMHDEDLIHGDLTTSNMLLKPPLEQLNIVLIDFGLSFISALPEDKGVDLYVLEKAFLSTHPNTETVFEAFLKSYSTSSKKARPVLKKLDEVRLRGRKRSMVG

[3] = target: Cyclin-dependent kinase 9 (Homo sapiens) (UniProt P50750); experiment: Inhibition of human CDK9 in HL-60 cells lysate assessed as reduction of labeling of acyl-phosphate ATP probe at 100 nM; type: cell-free
Chain of Cyclin-dependent kinase 9 (Homo sapiens) (P50750 whole entry): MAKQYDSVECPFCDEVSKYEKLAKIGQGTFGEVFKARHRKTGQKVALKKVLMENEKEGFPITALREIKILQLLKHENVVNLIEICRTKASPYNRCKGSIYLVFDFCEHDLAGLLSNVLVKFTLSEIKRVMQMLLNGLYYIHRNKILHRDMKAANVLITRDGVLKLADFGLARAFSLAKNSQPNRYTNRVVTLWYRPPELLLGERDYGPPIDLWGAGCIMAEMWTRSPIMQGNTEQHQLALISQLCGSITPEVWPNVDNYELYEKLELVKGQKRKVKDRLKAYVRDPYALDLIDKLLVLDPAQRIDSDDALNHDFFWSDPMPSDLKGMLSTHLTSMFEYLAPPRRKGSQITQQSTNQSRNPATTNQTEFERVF

[4] = target: RAF proto-oncogene serine/threonine-protein kinase (Homo sapiens) (UniProt P04049); experiment: Inhibition of human RAF1 in HL-60 cells lysate assessed as reduction of labeling of acyl-phosphate ATP probe at 100 nM; type: cell-free
Chain of RAF proto-oncogene serine/threonine-protein kinase (Homo sapiens) (P04049 whole entry): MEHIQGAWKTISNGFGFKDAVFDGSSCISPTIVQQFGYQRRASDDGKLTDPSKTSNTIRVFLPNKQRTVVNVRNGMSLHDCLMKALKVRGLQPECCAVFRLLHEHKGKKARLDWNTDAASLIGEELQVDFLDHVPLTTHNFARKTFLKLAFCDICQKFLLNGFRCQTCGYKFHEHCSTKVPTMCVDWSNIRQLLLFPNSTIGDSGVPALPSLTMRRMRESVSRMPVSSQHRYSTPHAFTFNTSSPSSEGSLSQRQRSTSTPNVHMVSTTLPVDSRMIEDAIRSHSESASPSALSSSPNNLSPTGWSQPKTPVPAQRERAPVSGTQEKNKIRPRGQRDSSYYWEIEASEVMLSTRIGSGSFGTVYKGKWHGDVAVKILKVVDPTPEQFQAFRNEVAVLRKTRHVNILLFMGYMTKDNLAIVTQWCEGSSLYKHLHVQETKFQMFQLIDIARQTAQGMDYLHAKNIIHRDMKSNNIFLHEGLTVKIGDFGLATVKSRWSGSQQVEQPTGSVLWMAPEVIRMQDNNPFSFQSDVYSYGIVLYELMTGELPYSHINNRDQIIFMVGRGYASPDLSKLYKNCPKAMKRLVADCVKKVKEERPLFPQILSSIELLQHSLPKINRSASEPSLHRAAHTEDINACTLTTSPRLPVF

HL-60 [5] = experiment: Inhibition of human KSR1/KSR2 in HL-60 cells lysate assessed as reduction of labeling of acyl-phosphate ATP probe at 100 nM
[6] = target: Glycogen synthase kinase-3 beta (Homo sapiens, UniProt P49841); experiment: Inhibition of GSK3-beta
Chain of Glycogen synthase kinase-3 beta (P49841 whole entry): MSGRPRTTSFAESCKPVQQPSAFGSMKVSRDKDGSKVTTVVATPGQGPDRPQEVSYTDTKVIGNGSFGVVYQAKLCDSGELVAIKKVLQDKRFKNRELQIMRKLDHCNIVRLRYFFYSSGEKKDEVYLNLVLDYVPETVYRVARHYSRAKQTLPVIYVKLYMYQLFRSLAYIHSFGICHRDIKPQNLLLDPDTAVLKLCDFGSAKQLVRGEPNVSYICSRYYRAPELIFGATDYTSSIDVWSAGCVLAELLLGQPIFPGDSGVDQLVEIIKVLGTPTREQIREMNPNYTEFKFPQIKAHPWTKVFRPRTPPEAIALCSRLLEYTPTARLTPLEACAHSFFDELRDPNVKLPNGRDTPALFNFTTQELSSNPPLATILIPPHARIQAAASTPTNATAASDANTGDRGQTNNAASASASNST

Escherichia coli = experiment: Antibacterial activity against Escherichia coli ATCC 8739; type: ADME, organism-based
HL-60 [7] = experiment: Inhibition of human MST3/MST4/YSK1 in HL-60 cells lysate assessed as reduction of labeling of acyl-phosphate ATP probe at 100 nM
[8] = target: T3, Mitogen-activated protein kinase kinase kinase 3 (Homo sapiens) (UniProt Q99759); experiment: Inhibition of human MAP3K3 in HL-60 cells lysate assessed as reduction of labeling of acyl-phosphate ATP probe at 100 nM; type: cell-free
T3 sequence (whole entry): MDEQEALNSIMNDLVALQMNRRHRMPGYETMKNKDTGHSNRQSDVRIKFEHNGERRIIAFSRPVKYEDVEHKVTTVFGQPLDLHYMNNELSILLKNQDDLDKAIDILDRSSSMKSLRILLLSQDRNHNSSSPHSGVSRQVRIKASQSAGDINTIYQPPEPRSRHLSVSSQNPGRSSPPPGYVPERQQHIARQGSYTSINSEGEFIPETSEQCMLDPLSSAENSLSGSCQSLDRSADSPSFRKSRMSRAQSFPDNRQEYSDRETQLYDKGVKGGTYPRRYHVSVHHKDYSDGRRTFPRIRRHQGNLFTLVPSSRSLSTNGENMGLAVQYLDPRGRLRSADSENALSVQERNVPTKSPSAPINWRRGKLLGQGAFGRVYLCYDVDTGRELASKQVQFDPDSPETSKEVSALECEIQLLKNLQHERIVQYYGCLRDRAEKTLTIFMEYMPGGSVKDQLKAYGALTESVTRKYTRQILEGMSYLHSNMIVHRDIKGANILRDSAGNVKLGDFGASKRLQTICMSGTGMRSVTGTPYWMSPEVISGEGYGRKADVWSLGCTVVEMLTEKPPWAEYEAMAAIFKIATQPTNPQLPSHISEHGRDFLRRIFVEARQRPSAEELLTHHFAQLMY

HL-60 [9] = experiment: Inhibition of human CDK11/CDK8 in HL-60 cells lysate assessed as reduction of labeling of acyl-phosphate ATP probe at 100 nM
[10] = target: T4, Dual specificity mitogen-activated protein kinase kinase 4 (Homo sapiens) (UniProt P45985); experiment: Inhibition of human MAP2K4 in HL-60 cells lysate assessed as reduction of labeling of acyl-phosphate ATP probe at 100 nM; type: cell-free
T4 sequence (whole entry): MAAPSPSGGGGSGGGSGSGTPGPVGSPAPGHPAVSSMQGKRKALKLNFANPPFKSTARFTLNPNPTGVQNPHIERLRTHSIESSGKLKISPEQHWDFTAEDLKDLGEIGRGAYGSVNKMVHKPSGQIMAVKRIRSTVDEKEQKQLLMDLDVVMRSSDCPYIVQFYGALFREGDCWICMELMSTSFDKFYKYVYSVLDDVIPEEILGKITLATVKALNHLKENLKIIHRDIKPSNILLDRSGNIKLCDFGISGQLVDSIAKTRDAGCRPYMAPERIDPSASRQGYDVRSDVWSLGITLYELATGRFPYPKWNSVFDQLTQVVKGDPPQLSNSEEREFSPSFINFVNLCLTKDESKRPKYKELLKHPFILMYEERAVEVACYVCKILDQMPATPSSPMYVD

[11] = target: T5, Dual specificity mitogen-activated protein kinase kinase 6 (Homo sapiens) (UniProt P52564); experiment: Inhibition of human MAP2K6 in HL-60 cells lysate assessed as reduction of labeling of acyl-phosphate ATP probe at 100 nM; type: cell-free
T5 sequence (whole entry): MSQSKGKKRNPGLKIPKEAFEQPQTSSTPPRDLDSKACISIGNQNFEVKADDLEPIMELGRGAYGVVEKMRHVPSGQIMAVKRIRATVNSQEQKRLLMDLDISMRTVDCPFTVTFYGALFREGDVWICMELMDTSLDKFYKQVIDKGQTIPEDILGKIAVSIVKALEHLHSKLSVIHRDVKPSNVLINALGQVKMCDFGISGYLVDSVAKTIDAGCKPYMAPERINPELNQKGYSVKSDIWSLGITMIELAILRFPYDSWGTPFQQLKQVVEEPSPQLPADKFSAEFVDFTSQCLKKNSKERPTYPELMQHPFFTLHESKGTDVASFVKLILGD

| inhibition [1] | inhibition [2] | inhibition [3] | inhibition [4] | pIC50 [6] | MIC (Escherichia coli) | inhibition [8] | inhibition [10] | inhibition [11] | Compound | inhibition at 0.1 µM (HL-60 [5]) | inhibition at 0.1 µM (HL-60 [7]) | inhibition at 0.1 µM (HL-60 [9]) |
| --- | --- | --- | --- | --- | --- | --- | --- | --- | --- | --- | --- | --- |
| < 35% | < 35% | < 35% | < 35% | 9.22 | > 298 µM | < 35% | < 35% | < 35% | C[C@H]1COc2c(NCCCc3ccccn3)c(F)c(N)c3c(=O)c(C#N)cn1c23 | < 35% | < 35% | < 35% |
| < 35% | < 35% | < 35% | < 35% | 7.80 | 20 µM (≈ 8.03 µg/mL) | < 35% | < 35% | < 35% | C[C@H]1COc2c(NCCCn3cccn3)c(F)c(N)c3c(=O)c(C(=O)O)cn1c23 | < 35% | < 35% | < 35% |
| < 35% | < 35% | < 35% | < 35% | 9.07 | > 306 µM | < 35% | < 35% | < 35% | C[C@H]1COc2c(NCCCn3cccn3)c(F)c(N)c3c(=O)c(C#N)cn1c23 | < 35% | < 35% | < 35% |
| < 35% | < 35% | < 35% | < 35% | 8.00 | 19 µM (≈ 7.84 µg/mL) | < 35% | < 35% | < 35% | C[C@H]1COc2c(NCCCc3ccccn3)c(F)c(N)c3c(=O)c(C(=O)O)cn1c23 | < 35% | < 35% | < 35% |
